The subject of series [1] is patients with statin-induced myopathy (SIM). In kind it is in vivo, human. More on the design: triglycerides: unit not given here. On the procedure:
A clinical study was conducted to evaluate the effects of HMB on patients with statin-induced myopathy (SIM). A total of eighteen patients were evaluated for the study with informed written consent obtained. Of the eighteen patients, fourteen (14) ultimately qualified as having true statin myalgia and were enrolled in the study. All patients enrolled were under the care of a board certified cardiologist.
A summary of the enrolled patients and their outcomes is as follows: • 1. All 14 had type 2a or mixed hyperlipidemia. • 2. All 14 had been treated with multiple statin agents, in each case withdrawing from the statin agent due to myalgia/myopathy. • 3. Of the 14 patients enrolled, 4 had elevated CPKs (creatine phosphokinase, a biomarker for myositis/rhabdomyolysis) secondary to SIM. • 4. Five of the 14 patients had undergone prior percutaneous coronary intervention with stents. • 5. One of the 14 patients had undergone prior coronary bypass surgery. • 6. Four of the 14 patients had angiographically documented moderate coronary artery disease not requiring percutaneous coronary intervention (PCI)/coronary bypass. • 7. Four of the 18 patients were disqualified due to the following: • Patient's leg myalgia was secondary to angiographically proven peripheral vascular disease, not SIM and symptoms were consistent with this diagnosis. • Patient's unilateral leg pain was secondary to neuropathy, not SIM. • Patient complained of GI upset on combined statin+3-hydroxy 3-methybutyrate and medication was discontinued. […] All 14 qualified patients remained on combination statin (in some cases with Zetia to achieve target) plus HMB therapy after the initial duration of the study. As noted, of those who had previously discontinued statin therapy, all had been tried on multiple statin agents without success. • 9. Follow up was conducted with all patients including out-patient visits and phone conversation. • 10.
The free acid form was used in one patient who experienced major CPK elevations (900-1000 IU/L range) and disabling myalgia on statins.
For this study, patients were evaluated using multiple laboratories with variable lab normal ranges, which are included. In the patient population as a whole, the full spectrum of SIM is presented, including statin myalgia […] CPK elevation (myositis or rhabdomyolysis depending on severity), elevation of CPK without myalgia, post-statin elevation of CPK with and without pain, post-statin myalgia without CPK elevation, and, finally, statin-induced muscle weakness without myalgia. Also represented were other statin-induced side effects such as short-term memory loss and glucose intolerance.

The conditions of series [2]: free acid form versus calcium monohydrate form; cited from earlier work.
For another series, the system named is acute rhabdomyolysis. Briefly: In-patient treatment of acute rhabdomyolysis with HMB. The series is classed as in vivo, human. As to conditions: HMB free acid (gel form) 6 g twice daily for 3 days, within 3 days. From the text: HMB administration is used to treat acute rhabdomyolysis in an in-patient setting.
Acute rhabdomyolysis is a rare but extreme and potentially life-threatening disorder that can occur in all groups in a setting of dehydration, trauma, and in younger age groups, intense exercise. […] At this time there is no known method of reversing rhabomyolysis apart from bed rest and hydration.
Protocol: measure patient's CPK; if value exceeds 10 times the upper limit of normal (200 IU/L, depending on laboratory-specific established normal range), initiate the following: • 1. Admit to ICU; • 2. Initiate IV 0.9% saline at 165 ml/hour; • 3. Initiate HMB free acid (gel form), dose 6 g twice daily for 3 days; • 4. Lab: CPK, BUN, creatinine, glucose and electrolytes every 12 hours for 3 days.

The mark [3] stands for this setting: Patient A-1, 3 months, Crestor 10 mg daily + 2 g BID.
[4] abbreviates: Patient F-6, atorvastatin 40 mg + Zetia 10 mg + 2 g BID, 2-month follow-up.

The structures appear in SMILES notation. Where two headings read alike, the source gives them in different places.

Take `CC(C)(O)CC(=O)O` [HMB free acid]: the CPK is 257 IU/L in series [1] (Patient D-4, free acid 2 gelcaps TID (3 g daily), after ten days, before 378) and “below 200 IU/L” in the series on acute rhabdomyolysis. The patient-reported state result in series [1] (Patient D-4, free acid 3 g daily, ten days) is listed as “felt better”. In series [1] (Patient D-4, free acid 3 g daily, ten days, before >200), the fasting blood glucose is recorded as 100 mg %. Moreover, the symptoms result in series [1] (Patient O-15, converted to free acid 1 g TID, three months post-enrollment) is listed as “completely symptom-free”; in series [1] (free acid gel cap, one patient (D-4), improvement over calcium monohydrate form), “resolution in symptoms”. The “change in CPK” value in series [1] (free acid gel cap, one patient (D-4) with major CPK elevations on statins) is listed as “significant decrease”. In addition, the bioavailability entry in series [2] is on record as “more bioavailable”.
Turning to `CCC(C)(C)C(=O)O[C@H]1C[C@@H](C)C=C2C=C[C@H](C)[C@H](CC[C@@H]3C[C@@H](O)CC(=O)O3)[C@H]21` [simvastatin, reference compound], the “CPK under statin (severe rhabdomyolysis)” value in series [1] (human, in vivo) is 900-1000 IU/L.
For the molecule `CC(C)c1nc(N(C)S(C)(=O)=O)nc(-c2ccc(F)cc2)c1/C=C/[C@@H](O)C[C@@H](O)CC(=O)O` [Crestor®, rosuvastatin, reference compound], the CPK under statin in series [1] (human, in vivo) was determined as 320 IU/L.
`CC(C)(O)CC(=O)[O-].CC(C)(O)CC(=O)[O-].[Ca+2]` [calcium HMB monohydrate]: the CPK in series [1] (Patient A-1, 2 g BID, 9 days later, before HMB 242, range 26-192) stood at 87 IU/L; in series [1] (setting [3]) it was 110 IU/L; in series [1] (Patient B-2, Vytorin 10/40 + 2 g BID, 50 days, lab normal range 44-196), 173 IU/L; in series [1] (Patient D-4, Crestor 20 mg + Zetia 10 mg + 2 g BID, 37 days, before 705, range 26-192), 277 IU/L; in series [1] (Patient D-4, five months later, diabetes uncontrolled), 378 IU/L; in series [1] (Patient E-5, after HMB treatment 2 g BID, range 39-308) it was 110 IU/L. Also, the CPK in series [1] (Patient G-7, statin + 2 g BID, four weeks, range 29-168) is 39 IU/L; in series [1] (Patient K-11, Crestor 20 mg daily + 2 g BID, 47 days, before 282 (29-168)) it was 191 IU/L; in series [1] (Patient L-12, two months, range 29-168), 87 IU/L; in series [1] (Patient M-13, Crestor + 2 g BID, four months, before 320, range 39-308) it was 210 IU/L; in series [1] (Patient O-15, 2 months post-enrollment, 5 days/week weight program, before 274 (30-200)), 310 IU/L. Besides, the “time to complete resolution of all pain” value in series [1] (Patient A-1, 2 g BID, post-statin myositis, before re-introducing statin) was determined as 3 days. Besides, the LDL came out at 72 mg/dL in series [1] (setting [3]); 110 mg % in series [1] (Patient B-2, Vytorin 10/40 + 2 g BID, 50 days, before 168); 49 in series [1] (Patient D-4, Crestor 20 mg + Zetia 10 mg + 2 g BID, 37 days, before >200 mg %); 43 in series [1] (Patient F-6, atorvastatin 40 mg + Zetia 10 mg + 2 g BID, repeat); 108 in series [1] (Patient G-7, statin + 2 g BID, four weeks, reduced from 169); 139 in series [1] (Patient K-11, Crestor 20 mg daily + 2 g BID, 47 days, before 282). Further, the LDL in series [1] (Patient L-12, Crestor 5 mg daily + 2 g BID, two months, before 122) was 100; in series [1] (Patient M-13, Crestor + 2 g BID, four months, before 244), 114; in series [1] (Patient O-15, 2 months post-enrollment, before 30) it was 53. Further, the symptoms entry was “asymptomatic” in series [1] (setting [3]); “completely asymptomatic” in series [1] (Patient B-2, six months later, on Vytorin); “completely symptom free” in series [1] (Patient C-3, Crestor 10 mg daily + 2 g BID, three months); “free of all symptoms of myalgia and muscle weakness” in series [1] (Patient G-7, statin resumed + 2 g BID, approximately four weeks); “completely asymptomatic” in series [1] (Patient H-8, 2 g BID combination, one month); “pain-free” in series [1] (Patient K-11, exercises near-daily). Further, the symptoms entry in series [1] (Patient L-12, two months) is given as “pain-free”. Besides, the myalgia entry in series [1] (Patient D-4, Crestor 20 mg + Zetia 10 mg + 2 g BID, 37 days) is given as “resolved except for very mild discomfort climbing stairs”; in series [1] (setting [4]) it was “completely resolved”; in series [1] (Patient M-13, follow-up five months after enrollment) it was “All myalgia had resolved”. The bilateral calf myalgia entry in series [1] (Patient E-5, 2 g BID, post-statin myalgia) was “resolved rapidly and completely”. In series [1] (setting [4]), the “short term memory loss” value was “improved”. The bilateral thigh pain result in series [1] (Patient J-10, Lipitor 10 mg daily + 2 g BID, one month) is “complete resolution of bilateral thigh pain”. Moreover, the CPK reduction in series [1] (Patient K-11, 47 days) is given as 32%; in series [1] (Patient M-13, four months), 34%. Further, the LDL reduction is recorded as 50% in series [1] (Patient K-11, 47 days) and 53% in series [1] (Patient M-13, four months). The triglycerides in series [1] (Patient L-12, Crestor 5 mg daily + 2 g BID, two months, before 261) is recorded as 193. Further, the muscle weakness entry in series [1] (Patient N-14, statin continued + 2 g BID, 13 days) is reported as “symptoms of muscle weakness had resolved”. Besides, the quadriceps/thigh pain result in series [1] (Patient O-15, combined statin therapy + 2 g BID, four weeks) is reported as “complete resolution of all quadriceps/thigh pain”. For the same molecule, the thigh pain entry in series [1] (Patient P-16, simvastatin + 2 g BID, sixteen days, persistent groin stiffness) is listed as “no longer had any thigh pain”.

Source of the values: patent publication US11147781B2, “Methods for alleviating statin myopathy” (priority 2014, dated 2021).
